# Source: patent US20240391912A1, “MORPHIC FORMS OF CFT7455 AND METHODS OF MANUFACTURE THEREOF” (C4 THERAPEUTICS, INC., priority 2022, published 2024)
# Entries after “also recorded” stand apart in the source; their conditions may differ.
# How the values were obtained:
# Assay type in all cases: physicochemical
# [1] = Equilibration of Compound 1 Form I with solvents at 50° C. for 1 week (XRPD)
# Method: About 50 mg of Compound 1 Form I (free form) was equilibrated in 1 mL of solvent at 50° C. for 1 week with a stirring plate. The obtained suspension was filtered and the solid part (wet cake) was investigated by XRPD.
# [2] = Precipitation of Compound 1 by addition of anti-solvent to DMSO solution (XRPD, residual solvent); conditions: for residual DMSO: 1H-NMR after vacuum drying at 80° C. for 2 hours; for Notes (appearance) / XRPD: solvent DMSO
# Method: About 20 mg of Compound 1 Form I (free form) was dissolved in DMSO and anti-solvent was added into the obtained solution slowly. Precipitates were collected by filtration. The solid part (wet cake) was investigated by XRPD. Residual solvent of these solids was also analyzed by ^1H-NMR after vacuum dried at 80° C. for 2 hours.
# [3] = Scale-up experiment (200 mg) and characterization of new polymorphs of Compound 1
# Method: Scale-up 1: About 200 mg of Compound 1 Form I was dissolved in 10 mL THF/Water (95:5, v:v) at 40° C. […] Compound 1 Form IV was obtained. It was subjected to characterization.
# Scale-up 2: About 200 mg of Compound 1 Form I was dissolved in 10 mL THF/Water (95:5, v:v) at 40° C. […] It was subjected to characterization.
# [4] = Approximate solubility of Compound 1 Form I at 25° C. and 50° C. (visual observation); conditions: thermodynamic from solid
# Method: Max. volume of each solvent added was 1 mL. Approximate solubility was determined by visual observation.
# [5] = Crystallization of Compound 1 at room temperature by slow evaporation (XRPD)
# Method: About 20 mg of Compound 1 Form I (free form) was dissolved and filtered by 0.45 μm nylon filter. Obtained solutions were evaporated slowly at ambient condition. Solid residues were examined for their polymorphic form.
# [6] = Behavior of Compound 1 Form I under heating and cooling (DSC cycles); conditions: for Melting onset: reheat to 300° C. at 10° C./min
# Method: Polymorphic behavior of Compound 1 Form I (free form) was investigated by two different heating-cooling cycles of DSC. The results were summarized in Table 6. • HCH1: 30° C. to 300° C. at 10° C./min; 300° C. to −20° C. at 20° C./min; reheat to 300° C. at 10° C./min. • HCH2: 30° C. to 300° C. at 10° C./min; 300° C. to −20° C. at 2° C./min; reheat to 300° C. at 10° C./min.
# [7] = Equilibration of Compound 1 Form I with solvents at 25° C. for 2 weeks (XRPD)
# Method: About 30 mg of Compound 1 Form I (free form) was equilibrated in 1 mL of solvent at 25° C. for 2 weeks with a stirring plate. The obtained suspension was filtered. The solid part (wet cake) was investigated b XRPD.
# [8] = Water activity study of Compound 1 Form I at 25° C. for 1 week; conditions: for change of morphic form in solvents with high water content (water activity study): acetone/water, DMSO/water, pure water, 25° C.
# Method: Water activity experiments were conducted at 25° C. in 7 different water activities solvent mixtures to determine critical water activity of Compound 1 Form I. About 20 mg of Compound 1 Form I was added to 1.0 mL of acetone/water or DMSO/water mixtures and stirred at 400 rpm and 25° C. for 1 week.
# [9] = solids after equilibration in EtOH
# [10] = anti-solvent Water, about 2 mg of seeds added
# [11] = solids after equilibration in EtOH, 25° C., 2 weeks
smiles,measurement,setting,value
"O=C1CC[C@H](N2C(=O)c3cccc4c(Cc5ccc(CN6CCOCC6)cc5)ccc2c34)C(=O)N1 [Compound 1 Form I, (S)-3-(6-(4-(morpholinomethyl)benzyl)-2-oxobenzo[cd]indol-1(2H)-yl)piperidine-2,6-dione]",XRPD,[1]; equilibration in ACN,Form I
same,XRPD,[1]; equilibration in Acetone,Form I
same,XRPD,[1]; equilibration in DCM,Form I
same,XRPD,[1]; equilibration in DCM:MeOH (v:v = 1:1),Form I
same,XRPD,[1]; equilibration in DCM:THF(v:v = 8:2),Form I
same,XRPD,[1]; equilibration in EA,Form I
same,XRPD,[1]; equilibration in EtOH,Form I
same,XRPD,[1]; equilibration in MeOH,Form I
same,XRPD,"[1]; equilibration in THF, wet cake",Form I
same,XRPD,[1]; equilibration in THF:Water (v:v = 95:5),Form I
same,Melting onset,[1]; [9],"Melting onset: 239.5° C.,"
same,enthalpy,[1]; [9],enthalpy: 109 J/g
same,residual DCM,[1]; [9],0.4% residual DCM
same,residual DMSO,[2]; DMSO/EtOH precipitate,0.05 equiv. residual
same,residual DMSO,[2]; DMSO/MeOH precipitate,0.14 equiv. residual
same,residual DMSO,[2]; DMSO/Water precipitate,0.90 equiv. residual
same,Notes (appearance),"[2]; anti-solvent Acetone, held at 5° C. for 2 days, no solid obtained",Clear solution^a
same,Notes (appearance),[2]; anti-solvent EtOAc,Clear solution
same,Notes (appearance),[2]; anti-solvent EtOH,Suspension
same,XRPD,[2]; anti-solvent EtOH,−
same,Notes (appearance),[2]; anti-solvent MeOH,Suspension
same,XRPD,"[2]; anti-solvent MeOH, wet cake",−
same,Notes (appearance),[2]; anti-solvent Water,Suspension
same,XRPD,[2]; anti-solvent Water,−
same,Notes (appearance),[2]; [10],Suspension^b
same,XRPD,[2]; [10],−
same,Stoichiometry: DCM,"[3]; 1H-NMR, listed as Form I",0.6% DCM
same,DSC enthalpy,"[3]; DSC, 10° C./min",enthalpy 114 J/g
same,DSC melting onset,"[3]; DSC, 10° C./min",233.9° C.;
same,Thermogravimetry weight loss,"[3]; TGA, 10° C./min, at 225° C.",About 2.0%
same,solubility,"[4]; DCM, 25 °C, organic solvent or mixture",8000 to 13000 µg/mL
same,solubility,"[4]; DCM, 50 °C, organic solvent or mixture",16000 to 25000 µg/mL
same,solubility,"[4]; DCM:MeOH (v:v = 1:1), 25 °C, organic solvent or mixture, DCM:MeOH (v:v = 1:1), 25° C.",17000 to 20000 µg/mL
same,solubility,"[4]; DCM:MeOH (v:v = 1:1), 50 °C, organic solvent or mixture, DCM:MeOH (v:v = 1:1), 50° C.",29000 to 33000 µg/mL
same,solubility,"[4]; DMSO, 25 °C, organic solvent or mixture",83000 to 125000 µg/mL
same,solubility,"[4]; DMSO, 25 °C, organic solvent or mixture, in DMSO, solubilized at about 25° C.",≥ 50000 µg/mL
same,solubility,"[4]; DMSO, 50 °C, organic solvent or mixture",167000 to 250000 µg/mL
same,solubility,"[4]; Ethanol:Water (8:2, v:v), 25 °C, organic solvent or mixture, Ethanol:Water (8:2, v:v), 25° C.",< 5000 µg/mL
same,solubility,"[4]; Ethanol:Water (8:2, v:v), 50 °C, organic solvent or mixture, Ethanol:Water (8:2, v:v), 50° C.",< 10000 µg/mL
same,solubility,"[4]; MTBE, 25 °C, organic solvent or mixture",< 5000 µg/mL
same,solubility,"[4]; MTBE, 50 °C, organic solvent or mixture",< 10000 µg/mL
same,solubility,"[4]; THF, 25 °C, organic solvent or mixture",8000 to 13000 µg/mL
same,solubility,"[4]; THF, 50 °C, organic solvent or mixture",16000 to 25000 µg/mL
same,solubility,"[4]; THF:Water (v:v = 95:5), 25 °C, organic solvent or mixture, THF:Water (v:v = 95:5), 25° C.",17000 to 20000 µg/mL
same,solubility,"[4]; THF:Water (v:v = 95:5), 50 °C, organic solvent or mixture, THF:Water (v:v = 95:5), 50° C.",40000 to 50000 µg/mL
same,solubility,"[4]; acetone, 25 °C, organic solvent or mixture",< 5000 µg/mL
same,solubility,"[4]; acetone, 50 °C, organic solvent or mixture",< 10000 µg/mL
same,solubility,"[4]; acetonitrile, 25 °C, organic solvent or mixture",< 5000 µg/mL
same,solubility,"[4]; acetonitrile, 50 °C, organic solvent or mixture",< 10000 µg/mL
same,solubility,"[4]; ethanol, 25 °C, organic solvent or mixture",< 5000 µg/mL
same,solubility,"[4]; ethanol, 50 °C, organic solvent or mixture",< 10000 µg/mL
same,solubility,"[4]; ethyl acetate, 25 °C, organic solvent or mixture",< 5000 µg/mL
same,solubility,"[4]; ethyl acetate, 50 °C, organic solvent or mixture",< 10000 µg/mL
same,solubility,"[4]; heptane, 25 °C, organic solvent or mixture",< 5000 µg/mL
same,solubility,"[4]; heptane, 50 °C, organic solvent or mixture",< 10000 µg/mL
same,solubility,"[4]; methanol, 25 °C, organic solvent or mixture, approximate, visual observation",< 5000 µg/mL
same,solubility,"[4]; methanol, 50 °C, organic solvent or mixture, approximate, visual observation",< 10000 µg/mL
same,solubility,"[4]; water, 25 °C",< 5000 µg/mL
same,solubility,"[4]; water, 50 °C",< 10000 µg/mL
same,Notes (form obtained),[5]; slow evaporation from DCM,Form I
same,XRPD (form change),[5]; slow evaporation from DCM at ambient condition,−
same,Notes (form obtained),[5]; slow evaporation from MeOH/DCM(v:v = 1:1),Form II
same,XRPD (form change),[5]; slow evaporation from MeOH/DCM(v:v = 1:1) at ambient condition,+ (Form changed detected.)
same,Notes (form obtained),[5]; slow evaporation from THF,Form III
same,XRPD (form change),[5]; slow evaporation from THF at ambient condition,+ (Form changed detected.)
same,Notes (form obtained),[5]; slow evaporation from THF:Water (v:v = 95:5),Form III
same,XRPD (form change),[5]; slow evaporation from THF:Water (v:v = 95:5) at ambient condition,+ (Form changed detected.)
same,Melting onset,"[6]; HCH1: 30° C. to 300° C. at 10° C./min, 300° C. to −20° C. at 20° C./min",Melting onset 231.4° ° C.
same,enthalpy,[6]; HCH1: cooling 300° C. to −20° C. at 20° C./min,C.; enthalpy 115 J/g
same,Melting onset,"[6]; HCH2: 30° C. to 300° C. at 10° C./min, 300° C. to −20° C. at 2° C./min",Melting onset 231.3° ° C.
same,enthalpy,[6]; HCH2: cooling 300° C. to −20° C. at 2° C./min,C.; enthalpy 108 J/g
same,stability of the form in water (equilibration experiments),[7]; alone in water / pure water,very stable; also recorded: stable
same,XRPD,"[7]; equilibration in ACN, 25° C., 2 weeks",Form I
same,XRPD,"[7]; equilibration in Acetone, 25° C., 2 weeks",Form I
same,XRPD,"[7]; equilibration in DCM, 25° C., 2 weeks",Form I
same,XRPD,"[7]; equilibration in DCM:MeOH (v:v = 1:1), 25° C., 2 weeks",Form I
same,XRPD,"[7]; equilibration in DCM:THF(v:v = 8:2), 25° C., 2 weeks",Form I
same,XRPD,"[7]; equilibration in EA, 25° C., 2 weeks",Form I
same,XRPD,"[7]; equilibration in EtOH, 25° C., 2 weeks",Form I
same,XRPD,"[7]; equilibration in MeOH, 25° C., 2 weeks",Form I
same,XRPD,"[7]; equilibration in THF, 25° C., 2 weeks, wet cake",Form I
same,XRPD,"[7]; equilibration in THF:Water (v:v = 95:5), 25° C., 2 weeks",Form I
same,Melting onset,[7]; [11],"Melting onset: 239.0° C.,"
same,enthalpy,[7]; [11],enthalpy: 107 J/g
same,residual DCM,[7]; [11],0.4% residual DCM
same,XRPD,"[8]; Acetone, a.w. 0, 25° C.",Form I
same,XRPD,"[8]; Acetone/Water (91:9, v:v), a.w. 1, 25° C.",Form I
same,XRPD,"[8]; Acetone/Water (94:6, v:v), a.w. 0.5, 25° C.",Form I
same,XRPD,"[8]; Acetone/Water (97:3, v:v), a.w. 0.3, 25° C.",Form I
same,XRPD,"[8]; Acetone/Water (99:1, v:v), a.w. 0.1, 25° C.",Form I
same,XRPD,"[8]; DMSO/Water (64:36, v:v), a.w. 0.5, 25° C.",Form I
same,XRPD,"[8]; Water, a.w. 1, 25° C.",Form I
same,change of morphic form in solvents with high water content (water activity study),[8],no significant changes to the morphic form
same,change of morphic form in solvents with high water content (water activity study),[8]; listed as Form I,only Form I was obtained
